Measurements as given in ChEMBL document CHEMBL1201862, “PubChem BioAssay data set” (2004).
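48-hour exposure; five concentrations; linearly interpolated endpoints. Here, GI50 denotes the concentration required for 50% inhibition of growth.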 The source made the active and inactive calls. Cut-off read from the data, not from the text of the source: active = GI50 up to about 1.1 µM and inactive = higher.

Assays:
Assay in all cases: growth of human tumour cells (NCI), 48 h
NCI-H226 = tested on: NCI-H226
MOLT-4 = tested on: MOLT-4
UACC-62 = tested on: UACC-62
K562 = tested on: K562
DMS-273 = tested on: DMS-273
ACHN = tested on: ACHN
CAKI-1 = tested on: CAKI-1
RXF 631 = tested on: RXF 631
RPMI-8226 = tested on: RPMI-8226
SK-OV-3 = tested on: SK-OV-3
KM12 = tested on: KM12
Malme-3M = tested on: Malme-3M
UACC-257 = tested on: UACC-257
OVCAR-5 = tested on: OVCAR-5
HOP-92 = tested on: HOP-92
COLO 205 = tested on: COLO 205
786-0 = tested on: 786-0
NCI-H460 = tested on: NCI-H460
SNB-19 = tested on: SNB-19
HOP-18 = tested on: HOP-18
M19-MEL = tested on: M19-MEL
HCC 2998 = tested on: HCC 2998
HCT-116 = tested on: HCT-116
DLD-1 = tested on: DLD-1
UO-31 = tested on: UO-31
HL-60 = tested on: HL-60
EKVX = tested on: EKVX
SW-620 = tested on: SW-620
SNB-78 = tested on: SNB-78
DMS-114 = tested on: DMS-114
SN12C = tested on: SN12C
SF-295 = tested on: SF-295
NCI-H522 = tested on: NCI-H522
A549 = tested on: A549
OVCAR-8 = tested on: OVCAR-8
U-251 = tested on: U-251
SK-MEL-2 = tested on: SK-MEL-2
HCT-15 = tested on: HCT-15
NCI-H23 = tested on: NCI-H23
HT-29 = tested on: HT-29
OVCAR-4 = tested on: OVCAR-4
IGROV-1 = tested on: IGROV-1
M14 = tested on: M14
SF-268 = tested on: SF-268
SF-539 = tested on: SF-539
TK-10 = tested on: TK-10
SK-MEL-5 = tested on: SK-MEL-5
SK-MEL-28 = tested on: SK-MEL-28
LXFL 529 = tested on: LXFL 529
CCRF-CEM = tested on: CCRF-CEM
HOP-62 = tested on: HOP-62
A498 = tested on: A498
KM-20L2 = tested on: KM-20L2
OVCAR-3 = tested on: OVCAR-3
SNB-75 = tested on: SNB-75

In the case of O=C(Nc1ccc(Cl)cc1Cl)C1C(=O)N(c2ccc(Cl)cc2Cl)C(=O)/C1=N\Nc1ccc([N+](=O)[O-])cc1[N+](=O)[O-] (stereo not given), the GI50 (NCI-H226) is reported as 39.6 µM (inactive), the GI50 (MOLT-4) is reported as 22 µM (inactive) and the GI50 (UACC-62) is reported as 15.8 µM (inactive). For the same compound, the GI50 (K562) was 14.7 µM (inactive), the GI50 (DMS-273) was 46.6 µM (inactive) and the GI50 (ACHN) was 74.5 µM (inactive). For the same compound, the GI50 (CAKI-1) was 54.5 µM (inactive), the GI50 (RXF 631) was 62.2 µM (inactive) and the GI50 (RPMI-8226) was 22.7 µM (inactive). For the same compound, the GI50 (SK-OV-3) was > 100 µM (inactive), the GI50 (KM12) was 34.5 µM (inactive) and the GI50 (Malme-3M) was 64 µM (inactive). The GI50 (UACC-257) was 29.4 µM (inactive), the GI50 (OVCAR-5) was 44.5 µM (inactive) and the GI50 (HOP-92) was 23.3 µM (inactive). For the same compound, the GI50 (COLO 205) was 52.5 µM (inactive), the GI50 (786-0) was 67.8 µM (inactive) and the GI50 (NCI-H460) was 59.8 µM (inactive). The GI50 (SNB-19) was 39.1 µM (inactive), the GI50 (HOP-18) was 17.9 µM (inactive) and the GI50 (M19-MEL) was 59.3 µM (inactive). For the same compound, the GI50 (HCC 2998) was 37.6 µM (inactive), the GI50 (HCT-116) was 26.9 µM (inactive) and the GI50 (DLD-1) was 46.8 µM (inactive). The GI50 (UO-31) was 15.8 µM (inactive), the GI50 (HL-60) was 35.2 µM (inactive) and the GI50 (EKVX) was > 100 µM (inactive). The GI50 (SW-620) was > 100 µM (inactive), the GI50 (SNB-78) was > 100 µM (inactive) and the GI50 (DMS-114) was 13.2 µM (inactive). For the same compound, the GI50 (SN12C) was 74.6 µM (inactive), the GI50 (SF-295) was 45.3 µM (inactive) and the GI50 (NCI-H522) was 21.5 µM (inactive). The GI50 (A549) was > 100 µM (inactive), the GI50 (OVCAR-8) was 60.8 µM (inactive) and the GI50 (U-251) was 48.8 µM (inactive). For the same compound, the GI50 (SK-MEL-2) was 42.9 µM (inactive), the GI50 (HCT-15) was 9.82 µM and the GI50 (NCI-H23) was 23.9 µM (inactive). For the same compound, the GI50 (HT-29) was 35.8 µM (inactive), the GI50 (OVCAR-4) was 43.5 µM (inactive) and the GI50 (IGROV-1) was 83 µM (inactive). For the same compound, the GI50 (M14) was 52 µM (inactive), the GI50 (SF-268) was 22.3 µM (inactive) and the GI50 (SF-539) was 36.6 µM (inactive). For the same compound, the GI50 (TK-10) was > 100 µM (inactive), the GI50 (SK-MEL-5) was 79.8 µM (inactive) and the GI50 (SK-MEL-28) was 47.8 µM (inactive). The GI50 (LXFL 529) was 13.9 µM (inactive), the GI50 (CCRF-CEM) was 23.1 µM (inactive) and the GI50 (HOP-62) was 45.8 µM (inactive). For the same compound, the GI50 (A498) was 47.5 µM (inactive), the GI50 (KM-20L2) was 26.4 µM (inactive) and the GI50 (OVCAR-3) was 47.2 µM (inactive). The GI50 (SNB-75) was 27.3 µM (inactive).
